Laboratory results: patent US20230053119A1, “FUSION POLYPEPTIDE COMPRISING Fc REGION OF IMMUNOGLOBULIN AND GDF15” (LG CHEM, LTD., priority 2019, published 2023)

How the values were obtained:
Assay type in all cases: in vivo
[1] = system: DIO mouse model (C57BL/6J-DIO); assay: Weight change in DIO mice after IgG4-GDF / IgG4-GDF(CRL) administration; conditions: for Body Weight, Mean: 3 nmol/kg s.c. Daily Inj.
Procedure: (§1) The pharmacological effect of the fusion polypeptide produced and purified in Example 1 was tested in mice (C57BL/6J, 6 weeks, male, 100 mice; RaonBio).
The test materials (IgG4-GDF ? GDF IgG4-GDF(CRL)) and control material
(§2) Semaglutide (Bachem) were subcutaneously administered. The dose of all the control material and test materials was 5 mL/kg, and the dose by individual was calculated on the basis of the recently measured weight, […] (1 mL). […] For a comparison group in which Semaglutide was administered, Semaglutide were administered every day once a day. All administrations were progressed from 9 AM.
The weight of each mouse was measured at the day of the start of administration of the test materials (before administration), and then the weight was measured every day (measured by 19 days at maximum). The dose of the test materials was determined on the basis of the most recently measured weight.

[2] = system: DIO mouse model (C57BL/6J-DIO); assay: Feed intake in DIO mice after IgG4-GDF / IgG4-GDF(CRL) administration; conditions: 3 nmol/kg s.c. Daily Inj.
Procedure: as §1, §2
(§3) In addition, after administering the test materials to mice, the feed intake was measured every day, and the amount of feeding was measured using an electronic scale by each breeding box, and then the residual amount was measured to calculate the feed intake a day. Individuals who severely ate the feed were excluded from the measurement.

[3] = system: DIO mouse model (C57BL/6J-DIO); assay: Weight change in DIO mice after HIgG1-GDF(CRL) / IgG1-GDF(CRL) administration; conditions: for Body Weight, Mean: 2.86 nmol/kg s.c. Daily Inj. for 5 days
Procedure: as §1
(§4) All the control material and test materials were administered subcutaneously. The administration route of the control material and test materials was selected as a subcutaneous route depending on the clinical intended route of administration.
The dose of all the control material and test materials was 5 mL/kg, and the dose by individual was calculated on the basis of the recently measured weight, […] (1 mL). […] For comparison, the control group in which the control material GDF15 was prepared, and for the comparison group in which GDF15 was administered, they were administered once a day for 5 days, 5 times in total, and all administrations were progressed from 9 AM.
The weight of each mouse was measured at the day of the start of administration of the test materials (before administration), and then the weight was measured every day (measured by 9 days at maximum). The dose of the test materials was determined on the basis of the most recently measured weight.

[4] = system: DIO mouse model (C57BL/6J-DIO); assay: Feed intake in DIO mice after HIgG1-GDF(CRL) / IgG1-GDF(CRL) administration; conditions: 2.86 nmol/kg s.c. Daily Inj. for 5 days
Procedure: as §1, §4
The dose of all the control material and test materials was 5 mL/kg, and the dose by individual was calculated on the basis of the recently measured weight, and they were administered subcutaneously once at the test start day using a disposable syringe (1 mL). […] For comparison, the control group in which the control material GDF15 was prepared, and for the comparison group in which GDF15 was administered, they were administered once a day for 5 days, 5 times in total, and all administrations were progressed from 9 AM.
as §3

[5] = Pharmacodynamic (PK) test in SD rat, serum concentration by Human GDF15 ELISA; conditions: 2 mg/kg subcutaneous
Procedure: For evaluation of pharmacodynamic characteristics when each polypeptide was subcutaneously administered to rats, polypeptide IgG4-GDF or IgG4-GDF(CRL) was subcutaneously administered in an amount of 2 mg/kg, respectively, to SD Rat (Koatech, male, 7 weeks, about 250g; n=3 each; test group), and at a fixed time, blood was collected about […] through a caudal vein. Blood collecting was progressed before administration of the fusion polypeptide, in 1, 2, 4, 8, 24, 48, 72, 96, 168, 240 and 336 hours after administration. As a control group for comparison of pharmacodynamic characteristics, GDF15 (R&D Systems) was subcutaneously administered in an amount of 2 mg/kg by the same method as above to prepare GDF15 administration group.
After administering to SD Rat as above, blood collected by time-point was centrifuged to obtain serum, and ELISA was performed using Human GDF15 Immunoassay (SGD150, R&D Systems), to measure the concentration in serum over time for each polypeptide.

Semaglutide [reference compound]
Body Weight, Mean ([1]; Day 0): 100 % of initial | Body Weight, Mean ([1]; Day 1): 94 % of initial | Body Weight, Mean ([1]; Day 2): 91 % of initial | Body Weight, Mean ([1]; Day 3): 90 % of initial | Body Weight, Mean ([1]; Day 4): 87 % of initial | Body Weight, Mean ([1]; Day 5): 87 % of initial | Body Weight, Mean ([1]; Day 6): 85 % of initial | Body Weight, Mean ([1]; Day 7): 86 % of initial | Body Weight, Mean ([1]; Day 8): 83 % of initial | Body Weight, Mean ([1]; Day 9): 85 % of initial | Body Weight, Mean ([1]; Day 10): 84 % of initial | Body Weight, Mean ([1]; Day 11): 82 % of initial | Body Weight, Mean ([1]; Day 12): 81 % of initial | Body Weight, Mean ([1]; Day 13): 82 % of initial | Body Weight, Mean ([1]; Day 14): 81 % of initial | Body Weight, Mean ([1]; Day 15): 79 % of initial | Body Weight, Mean ([1]; Day 16): 79 % of initial | Body Weight, Mean ([1]; Day 17): 78 % of initial | Body Weight, Mean ([1]; Day 18): 77 % of initial | Body Weight, Mean ([1]; Day 19): 77 % of initial | weight loss (in words) ([1]; daily administration): weight loss was consistent | Feed intake a day, Mean ([2]; Day 0): 3.7 | Feed intake a day, Mean ([2]; Day 1): 2.1 | Feed intake a day, Mean ([2]; Day 2): 3.3 | Feed intake a day, Mean ([2]; Day 3): 2.8 | Feed intake a day, Mean ([2]; Day 4): 2.3 | Feed intake a day, Mean ([2]; Day 5): 2.9 | Feed intake a day, Mean ([2]; Day 6): 2.7 | Feed intake a day, Mean ([2]; Day 7): 3.2 | Feed intake a day, Mean ([2]; Day 8): 2.4 | Feed intake a day, Mean ([2]; Day 9): 3.7 | Feed intake a day, Mean ([2]; Day 10): 2.7 | Feed intake a day, Mean ([2]; Day 11): 2.5 | Feed intake a day, Mean ([2]; Day 12): 2.4 | Feed intake a day, Mean ([2]; Day 13): 3.0 | Feed intake a day, Mean ([2]; Day 14): 2.5 | Feed intake a day, Mean ([2]; Day 15): 2.1 | Feed intake a day, Mean ([2]; Day 16): 2.5 | Feed intake a day, Mean ([2]; Day 17): 2.0 | Feed intake a day, Mean ([2]; Day 18): 2.2 | Feed intake a day, Mean ([2]; Day 19): 3.7

GDF15: control material GDF15 (R&D Systems), Growth/differentiation factor 15 not fused with Fc
Body Weight, Mean ([3]; Day 0): 100 % of initial | Body Weight, Mean ([3]; Day 1): 99 % of initial | Body Weight, Mean ([3]; Day 2): 98 % of initial | Body Weight, Mean ([3]; Day 3): 97 % of initial | Body Weight, Mean ([3]; Day 4): 96 % of initial | Body Weight, Mean ([3]; Day 5): 95 % of initial | Body Weight, Mean ([3]; Day 6): 95 % of initial | Body Weight, Mean ([3]; Day 7): 95 % of initial | Body Weight, Mean ([3]; Day 8): 96 % of initial | Body Weight, Mean ([3]; Day 9): 97 % of initial | weight loss effect (in words) ([3]; daily administration, stopping administration from Day 5): weight loss effect disappeared from Day 6 | Feed intake a day, Mean ([4]; Day 0): 2.8 | Feed intake a day, Mean ([4]; Day 1): 2.4 | Feed intake a day, Mean ([4]; Day 2): 2.7 | Feed intake a day, Mean ([4]; Day 3): 2.4 | Feed intake a day, Mean ([4]; Day 4): 2.5 | Feed intake a day, Mean ([4]; Day 5): 2.6 | Feed intake a day, Mean ([4]; Day 6): 2.7 | Feed intake a day, Mean ([4]; Day 7): 3.0 | Feed intake a day, Mean ([4]; Day 8): 3.3 | Feed intake a day, Mean ([4]; Day 9): 3.5 | AUCextp ([5]; [(AUCinf − AUClast)/AUCinf]*100): 0.463% | AUClast ([5]; serum): 4860 ng·h/mL | Cmax (maximum blood concentration) ([5]; serum): 443 ng/mL | Tmax (time to reach maximum blood concentration) ([5]; serum): 1 h | half-life ([5]; serum): 19 h | t1/2 (elimination half-life) ([5]; serum): 19.0 h | AUCinf ([5]; serum, extrapolated to infinite time): 4880 ng·h/mL
